# Results published in patent US4080442A, “Disaccharide derivatives used in the treatment of hepatic diseases” (Meito Sangyo Kabushiki Kaisha, priority 1975, dated 1978).
# Tested on: experimental hepatitis induced by D-galactosamin
# Experiment: Conjoint use of glutathione in experimental hepatitis induced by D-galactosamin
# Format: in vivo, female Wistar rats
# Conditions: GSH 5 mg/rat, GSSH 5 mg/rat, AS 75 mg/rat, mixtures: GSH or GSSH 5 mg/rat + AS 75 mg/rat, average value ± S.E.
# Method: Groups each of 10 female Wistar rats of 100 - 120 gram body weight put on a fast of 2 hours prior to the experiment were used. […] One hour after these administrations, all of the groups were administered with D-galactosamin. The administration of the D-galactosamin was performed in the following manner. […] After completion of this administration, the fasted state was continued. Twenty-two hours after the administration of the D-galactosaminhydrochloride, blood was taken from the abdominal aorta and measured for the GOT, GPT, bilirubin and blood glucose contained in the blood plasma. The GOT and GPT were measured by the Reitman-Frankel Method, the bilirubin by the Evelyn-Malloy Method and the blood glucose by the […].
# The effects obtained by using injection mixtures of either a reduced type glutathione or an oxidized type glutathione and a sucrose derivative obtained by the method of preparing a pharmaceutical composition of the hereinafter-given Example 11 in treating animals suffering from hepatitis induced by D-galactosamin were tested by operating as in I., above.
smiles,measurement,setting,value
"N[C@@H](CCC(=O)N[C@@H](CS)C(=O)NCC(=O)O)C(=O)O [GSH, Reduced type glutathione]",GPT,control 1830±432,1660±472 Karman U.
same,GOT,control 2748±490,2510±510 Karmen U.
